Measured values from PMC8900595 (Journal of medicinal chemistry, 2021).

Experiments:
[1] = test system: A/WSN/33; test: microbe, parasite or virus in culture; format: cell-based, influenza A virus
[2] = test system: A549 cells; details: human
[3] = test system: WSN-PB2-Nanoluc virus; format: cell-based, influenza A virus

| Molecule | selectivity index [1] | Cytotoxicity (MTT) CC10 [2] [µM] | antiviral activity as described in SAR text [1] | further results |
| --- | --- | --- | --- | --- |
| CCN(c1ccccc1)S(=O)(=O)c1cc(Cl)ccc1Cl [compound 7, 2,5-Dichloro-N-ethyl-N-phenylbenzenesulfonamide] | >6 | >5 |  | loss of activity on removing the 2-methyl group [1]: greater than 10 × |
| CCN(c1c(F)cc(Cl)cc1F)S(=O)(=O)c1cc(Cl)ccc1Cl [compound 23, 2,5-Dichloro-N-(4-chloro-2,6-difluorophenyl)-N-ethylbenzenesulfonamide] | >12 |  | less active |  |
| CCN(c1ccc(F)cc1F)S(=O)(=O)c1cccc(Cl)c1Cl [compound 37, 2,3-Dichloro-N-(2,4-difluorophenyl)-N-ethylbenzenesulfonamide] |  |  | inactive |  |
| C#CCN(c1ccccc1C)S(=O)(=O)c1cc(Cl)ccc1Cl [compound 5, 2,5-Dichloro-N-(prop-2-yn-1-yl)-N-(o-tolyl)benzenesulfonamide] | >13 | >5 |  |  |
| CCN(c1ccc(Cl)cc1F)S(=O)(=O)c1cc(Cl)ccc1Cl [compound 20, 2,5-Dichloro-N-(4-chloro-2-fluorophenyl)-N-ethylbenzenesulfonamide] | >33 | >5 |  |  |
| Cc1cc(Cl)ccc1N(CCO)S(=O)(=O)c1cc(Cl)ccc1Cl [compound 17, 2,5-Dichloro-N-(4-chloro-2-methylphenyl)-N-(2-hydroxyethyl)benzenesulfonamide] |  | >5 | lower activity |  |
| CCN(c1ccccc1Cl)S(=O)(=O)c1cc(Cl)ccc1Cl [compound 8, 2,5-Dichloro-N-(2-chlorophenyl)-N-ethylbenzenesulfonamide] | >33 | >5 | less effective |  |
| 2,5-Dichloro-N-(4-chloro-2-methylphenyl)benzamide [compound 51] |  |  |  | activity under the assay conditions [3]: inactive |
| C=CCN(c1ccc(Cl)cc1C)S(=O)(=O)c1cc(Cl)ccc1Cl [compound 13, N-Allyl-2,5-dichloro-N-(4-chloro-2-methylphenyl)benzenesulfonamide] | >135 | >5 | generally more potent |  |
| Cc1ccccc1N(C)S(=O)(=O)c1cc(Cl)ccc1Cl [compound 3, 2,5-Dichloro-N-methyl-N-(o-tolyl)benzenesulfonamide] |  | >5 | substantially diminished activity |  |
| CCN(c1ccc(F)cc1)S(=O)(=O)c1cc(Cl)ccc1Cl [compound 10] | >74 | >5 | similarly potent |  |
| CCN(c1ccc(F)cc1F)S(=O)(=O)c1ccccc1 [compound 30, N-(2,4-Difluorophenyl)-N-ethylbenzenesulfonamide] |  |  | inactive |  |
| CCN(c1ccc(F)cc1F)S(=O)(=O)c1cccc(Cl)c1 [compound 32, 3-Chloro-N-(2,4-difluorophenyl)-N-ethylbenzenesulfonamide] |  |  | maintained activity | lower level of activity than 21 [1]: 10 fold |
| Cc1ccccc1NS(=O)(=O)c1cc(Cl)ccc1Cl [compound 2, 2,5-Dichloro-N-(o-tolyl)benzenesulfonamide] |  | >5 | substantially diminished activity |  |
| Cc1ccccc1N(C(C)C)S(=O)(=O)c1cc(Cl)ccc1Cl [compound 6, 2,5-Dichloro-N-isopropyl-N-(o-tolyl)benzenesulfonamide] | >3 | >5 |  | loss of activity compared to compound 1 [1]: greater than 10 fold |
| CCN(c1ccc(CC(=O)N2CCN(C)CC2)cc1)S(=O)(=O)c1cc(Cl)ccc1Cl [compound 29, 2,5-Dichloro-N-ethyl-N-(4-(2-(4-methylpiperazin-1-yl)-2-oxoethyl)phenyl)benzenesulfonamide] |  | >25 |  |  |
| C#CCN(c1cccc(N=[N+]=[N-])c1)S(=O)(=O)c1cc(Cl)ccc1Cl [compound 54, N-(3-Azidophenyl)-2,5-dichloro-N-(prop-2-yn-1-yl)benzenesulfonamide] |  |  |  | activity under the assay conditions [3]: retained robust activity |
| Cc1cc(Cl)ccc1N(CC1CC1)S(=O)(=O)c1cc(Cl)ccc1Cl [compound 15, 2,5-Dichloro-N-(4-chloro-2-methylphenyl)-N-(cyclopropylmethyl)benzenesulfonamide] | >10 | >5 |  | less active than the N-ethyl version (12) [1]: greater than 10 × |
| CCN(c1ccc(CCNC(C)=O)cc1)S(=O)(=O)c1cc(Cl)ccc1Cl [compound 28, N-(4-((2,5-Dichloro-N-ethylphenyl)sulfonamido)phenethyl)-acetamide] |  | >25 |  |  |

| Molecule | selectivity index [1] | Cytotoxicity (MTT) CC10 [2] [µM] | antiviral activity as described in SAR text [1] | further results |
| --- | --- | --- | --- | --- |
| CCN(c1ccc(F)cc1F)S(=O)(=O)c1ccccc1Cl [compound 31, 2-Chloro-N-(2,4-difluorophenyl)-N-ethylbenzenesulfonamide] |  |  | inactive |  |
| CCOC(=O)Cc1ccc(N(CC)S(=O)(=O)c2cc(Cl)ccc2Cl)cc1 [compound 24, Ethyl 2-(4-((2,5-Dichloro-N-ethylphenyl)sulfonamido)phenyl)-acetate] | >63 | >5 |  |  |
| CCN(c1ccc(CCO)cc1)S(=O)(=O)c1cc(Cl)ccc1Cl [compound 26, 2,5-Dichloro-N-ethyl-N-(4-(2-hydroxyethyl)phenyl)-benzenesulfonamide] |  | >25 |  |  |
| O=S(=O)(c1cc(Cl)ccc1Cl)N1CCc2cc(Cl)ccc21 [compound 49, 5-Chloro-1-((2,5-dichlorophenyl)sulfonyl)indoline] |  |  |  | activity under the assay conditions [3]: inactive |
| Cc1cc(Cl)ccc1N(C(F)F)S(=O)(=O)c1cc(Cl)ccc1Cl [compound 19, 2,5-Dichloro-N-(4-chloro-2-methylphenyl)-N-(difluoromethyl)benzenesulfonamide] | >4 | >5 | lower activity |  |
| C=CCN(c1ccccc1C)S(=O)(=O)c1cc(Cl)ccc1Cl [compound 4, N-Allyl-2,5-dichloro-N-(o-tolyl)benzenesulfonamide] | >42 | >5 |  |  |
| C#CCN(c1ccc(Cl)cc1C)S(=O)(=O)c1cc(Cl)ccc1Cl [compound 14, 2,5-Dichloro-N-(4-chloro-2-methylphenyl)-N-(prop-2-yn-1-yl)benzenesulfonamide] | >42 | >5 | generally more potent |  |
| C#CCCC1(CCOC(=O)Cc2ccc(N(CC)S(=O)(=O)c3cc(Cl)ccc3Cl)cc2)N=N1 [compound 53, 2-(3-(But-3-yn-1-yl)-3H-diazirin-3-yl)ethyl 2-(4-((2,5-Dichloro-Nethylphenyl)sulfonamido)phenyl)acetate] |  |  |  | activity under the assay conditions [3]: not active |
| CCN(c1ccc(F)cc1F)S(=O)(=O)c1c(Cl)cccc1Cl [compound 35, 2,6-Dichloro-N-(2,4-difluorophenyl)-N-ethylbenzenesulfonamide] |  |  | inactive |  |
| CCN(c1ccccc1C#N)S(=O)(=O)c1cc(Cl)ccc1Cl [compound 9, 2,5-Dichloro-N-(2-cyanophenyl)-N-ethylbenzenesulfonamide] | >29 | >5 | less effective |  |
| CCN(c1ccc(F)cc1F)S(=O)(=O)c1ccc(Cl)c(Cl)c1 [compound 36, 3,4-Dichloro-N-(2,4-difluorophenyl)-N-ethylbenzenesulfonamide] |  |  | inactive |  |
| CCN(c1ccc(C)cc1)S(=O)(=O)c1cc(Cl)ccc1Cl [compound 11, 2,5-Dichloro-N-ethyl-N-(p-tolyl)benzenesulfonamide] | >298 | >25 | well tolerated |  |
| CCN(c1c(C)cc(Cl)cc1Cl)S(=O)(=O)c1cc(Cl)ccc1Cl [compound 22, 2,5-Dichloro-N-(2,4-dichloro-6-methylphenyl)-N-ethylbenzenesulfonamide] | >13 | >5 | less active |  |
| CCN(c1ccc(CCN)cc1)S(=O)(=O)c1cc(Cl)ccc1Cl [compound 27, N-(4-(2-Aminoethyl)phenyl)-2,5-dichloro-N-ethylbenzenesulfonamide] |  | >25 |  |  |
| CCN(c1ccc(F)cc1F)S(=O)(=O)c1cc(Cl)cc(Cl)c1 [compound 34, 3,5-Dichloro-N-(2,4-difluorophenyl)-N-ethylbenzenesulfonamide] |  |  |  | less active than 1–55 [1]: > 10 fold |
| Cc1cc(Cl)ccc1N(CCF)S(=O)(=O)c1cc(Cl)ccc1Cl [compound 18, 2,5-Dichloro-N-(4-chloro-2-methylphenyl)-N-(2-fluoroethyl)-benzenesulfonamide] | >9 | >5 | lower activity | IC50 ([1]; Influenza A virus, WSN, A549, 24 h, read-out: viral replication IC50): 0.55 µM |
| COCCN(c1ccc(Cl)cc1C)S(=O)(=O)c1cc(Cl)ccc1Cl [compound 16, 2,5-Dichloro-N-(4-chloro-2-methylphenyl)-N-(2-methoxyethyl)-benzenesulfonamide] | >4 | >5 | lower activity |  |
| CCN(c1ccc(CC(=O)O)cc1)S(=O)(=O)c1cc(Cl)ccc1Cl [compound 25, 2-(4-((2,5-Dichloro-N-ethylphenyl)sulfonamido)phenyl)acetic Acid] |  | >25 |  |  |
| CCN(c1ccc(F)cc1F)S(=O)(=O)c1ccc(Cl)cc1Cl [compound 33, 2,4-Dichloro-N-(2,4-difluorophenyl)-N-ethylbenzenesulfonamide] |  |  | inactive |  |
